This passage reports Activity, IC50 and EC50 results from ChEMBL document CHEMBL1140045, “Crystal structures of rat vitamin D receptor bound to adamantyl vitamin D analogs: structural basis for vitamin D receptor antagonism and partial agonism” (J Med Chem, 2008).

Molecules are shown by their SMILES. The source made the active and inactive calls. The calls are words filed in the database; no cut-off is given here.

Test [1] deals with T1, Vitamin D3 receptor (Homo sapiens) (UniProt P11473).
T1 sequence (whole entry): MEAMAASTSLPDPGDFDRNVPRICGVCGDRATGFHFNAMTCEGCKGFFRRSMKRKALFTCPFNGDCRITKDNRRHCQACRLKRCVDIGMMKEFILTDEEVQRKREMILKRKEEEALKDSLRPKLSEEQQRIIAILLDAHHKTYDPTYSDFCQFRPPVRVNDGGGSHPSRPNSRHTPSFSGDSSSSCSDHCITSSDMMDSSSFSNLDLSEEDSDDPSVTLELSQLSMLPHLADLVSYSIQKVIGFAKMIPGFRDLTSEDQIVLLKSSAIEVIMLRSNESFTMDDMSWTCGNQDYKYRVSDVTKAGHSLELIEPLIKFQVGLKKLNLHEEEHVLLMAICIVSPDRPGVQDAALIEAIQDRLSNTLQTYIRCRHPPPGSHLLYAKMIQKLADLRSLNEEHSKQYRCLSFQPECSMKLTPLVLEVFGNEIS
Put plainly: Agonist activity at VDR assessed as receptor transactivation by transient transcription assay relative to 1,25-Dihydroxyvitamin D3. It is filed as functional.

For test [2], the target named is T2, Vitamin D3 receptor (Homo sapiens, UniProt P11473).
T2 sequence (P11473 whole entry): T1 sequence (whole entry)
Nature of the test: Antagonist activity at VDR expressed in COS7 cells assessed as inhibition of 1,25-Dihydroxyvitamin D3-induced response by transient transcription assay. The format is functional, cell-based, COS-7.

The target in test [3] is T2, Vitamin D3 receptor. Nature of the test: Agonist activity at VDR assessed as receptor transactivation by transient transcription assay. It is filed as functional.
Test [4] deals with T1, Vitamin D3 receptor (Homo sapiens). Nature of the test: Binding affinity to VDR relative to 1,25-Dihydroxyvitamin D3.

Regarding `C=C1[C@H](O)CC(=C/C=C2\CCC[C@]3(C)[C@@H]([C@@H](C)/C=C/C[C@@H](O)C45CC6CC(CC(C6)C4)C5)CC[C@@H]23)C[C@H]1O`, the Activity is 15% in test [1] and 75% in test [4]. In addition, the IC50 on Vitamin D3 receptor [2] was 3 nM. Besides, the half-maximal effective concentration (EC50) on Vitamin D3 receptor [3] came to 1 nM.

On to `C=C1[C@H](O)CC(=C/C=C2\CCC[C@]3(C)[C@@H]([C@H](C)/C=C/[C@@H](O)C45CC6CC(CC(C6)C4)C5)CC[C@@H]23)C[C@H]1O`, for which the results for the Activity in test [1] and in test [4] were 74% and 20%, respectively. Also, the EC50 on Vitamin D3 receptor [3] is 0.02 nM.

Take `C=C1[C@H](O)CC(=C/C=C2\CCC[C@]3(C)[C@@H]([C@@H](C)/C=C/C[C@@H](O)CC45CC6CC(CC(C6)C4)C5)CC[C@@H]23)C[C@H]1O`: the Activity in test [1] is 10%. Further, the 50% effective concentration (EC50) on Vitamin D3 receptor [3] came to 24 nM. Moreover, the result in test [4] was Active.

The term IC50 denotes the midpoint of a concentration-inhibition curve. By EC50 is commonly meant the concentration that produces a half-maximal response.
